# Experimental data from patent publication US4238500A, “Cyclic double hemiacetals of enediol compounds and compositions and methods for preparing and using same” (National Foundation for Cancer Research, priority 1979, dated 1980).
# How the values were obtained:
# [1] = tested on: capillary permeability produced by serotonin or histamine; test: Increased capillary permeability by intradermal serotonin or histamine (trypan blue) in rats; assay type: in vivo; conditions: 100 mg/kg i.p. 30 minutes before, serotonin 0.05 μg or histamine 1 μg intradermal
# Protocol: In one series of tests, rats were treated i.v. with trypan blue and then the increased capillary permeability produced by intradermal injection of serotonin (0.05 μg) or histamine (1 μg) was measured.
# No effect of methylglyoxal-ascorbic acid compound or L-ascorbic acid could be found in this system.
# guinea pig ileum = test: Effects on pain receptors: twitch height of coaxially stimulated guinea pig ileum; conditions: Cavia porcellus, read-out: ED50 (50% reduction in twitch height)
# [2] = tested on: edema of the rat paw produced by carrageenan; test: Carrageenan-induced edema of the rat paw
# Protocol: In other experiments, edema of the rat paw was produced by intradermal injection of carrageenan (0.1 ml of 1% solution in saline).
# viral disease = conditions: cited from earlier work
# [3] = tested on: acute myelocytic leukemia; conditions: 13 patients with acute myelocytic leukemia; all then-current therapy 13%; cited from earlier work
# glyoxalase enzyme system = conditions: converted by glyoxalase to D-lactic acid in presence of reduced glutathione; cited from earlier work
# [4] = 199 mg/kg i.p. versus indomethacin 3 mg/kg per os
structure (smiles),measurement,setting,value
O=C1O[C@H]([C@@H](O)CO)C(O)=C1O [L-ascorbic acid],effect on increased capillary permeability,[1],No effect
same,IC50,guinea pig ileum,32 mM
same,anti-inflammatory activity (rat paw edema),[2]; 199 mg/kg i.p. 60 minutes prior to carrageenan,somewhat anti-inflammatory
same,activity compared with indomethacin,[2]; [4],far less active than indomethacin
same,ratio of effectiveness (indomethacin versus compound),[2]; [4],approximately 200
O=CC(=O)Cc1ccccc1 [benzylglyoxal],antiviral activity,viral disease,have antiviral activity
O=CC(=O)C1CCCCC1 [cyclohexylglyoxal],antiviral activity,viral disease,have antiviral activity
CC(C=NNC(=N)N)=NNC(=N)N [methylglyoxal bis(guanylhydrazone)],complete remission frequency,[3],69%
CC(=O)C=O [methylglyoxal],lability in vivo,glyoxalase enzyme system,extremely labile in vivo
same,IC50,guinea pig ileum,8 mM
